From patent US12617752B2, “Rapidly metabolized lipid compound” (Beijing Jitai Life Sciences Ltd, priority 2023, dated 2026)

Assays:
[1] = system: C57BL/6 mice; assay: In vivo delivery of luciferase mRNA lipid nanoparticles in mice (bioluminescence imaging); conditions: intravenous, single dose 0.5 mg/kg luciferase mRNA
Summary of the method: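 Female C57BL/6 mice, 6-8 weeks old, received luciferase mRNA lipid nanoparticles as a single intravenous dose of 0.5 mg/kg mRNA. At 6 h, D-luciferin given intraperitoneally; 10 min later, mice were imaged under isoflurane anaesthesia. Values are group mean fluorescence intensity and total photon count.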

[2] = Encapsulation efficiency of lipid nanoparticles (Quant-it RiboGreen RNA Assay); format: physicochemical; conditions: lipid nanoparticles with luciferase mRNA
Summary of the method: (§1)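 LNPs of ionizable lipid/cholesterol/phospholipid/PEG-lipid (50/38.5/10/1.5 mol%, N/P 6) were formed by microfluidic mixing with mRNA in pH 4.5 acetate, then buffer-exchanged by ultrafiltration. Size and PDI were measured by DLS. Encapsulation came from RiboGreen fluorescence (485/528 nm) in TE pH 7.5, with and without 0.5% Triton at 37 °C for 30 min.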

[3] = Particle size and PDI of lipid nanoparticles by dynamic light scattering; format: physicochemical; conditions: lipid nanoparticles with luciferase mRNA; ionizable lipid/cholesterol/DSPC/DMG-PEG2000 50/38.5/10/1.5 mol%
Summary of the method: as §1

| SMILES | Total photon count in vivo at 6 hours after administration (Total Flux) [1] | Encapsulation efficiency (%) [2] [%] | Particle size (nm) [3] [nm] | Particle-size distribution (PDI) [3] |
| --- | --- | --- | --- | --- |
| CCCCCCCCCC(=O)OCC(C)(C)CCCCCN(CCCCCCOC(=O)OCC(CCCCCCC)CCCCCCC)C(=O)SCCCN(C)C [47b] | 2.84E+10 | 97.27 | 122.40 | 0.07 |
| CCCCCCCCCCOC(=O)OCCCCCCN(CCO)CCCCCCC(C)(C)C(=O)OC(CCCCCCCCC)CCCCCCCCC [48a] | 8.16E+10 | 96.13 | 81.22 | 0.16 |
| CCCCCCCCCCCOC(=O)OCCCCCCN(CCO)CCCCCCC(C)(C)C(=O)OC(CCCCCCCCCC)CCCCCCCCCC [49a] | 2.28E+10 | 94.85 | 100.56 | 0.14 |
| CCCCCCCC(CCCCCCC)COC(=O)CCCCC(C)(C)CCN(CCO)CCCCCCOC(=O)OCC(CCCCCCC)CCCCCCC [50a] | 2.86E+10 | 98.67 | 78.03 | 0.12 |
| CCCCCCCCOC(=O)OCC(C)(C)CCCCCN(CCCCCCOC(=O)CC(CCCCCCCC)CCCCCCCC)C(=O)SCCCCN(C)C [50b] | 1.01E+10 | 98.50 | 98.36 | 0.13 |
| CCCCCCCCCOC(=O)CCCCCCCN(CCO)CCCCC(C)(C)COC(=O)OCC(CCCCCCC)CCCCCCC [51a] | 3.11E+10 | 94.81 | 92.08 | 0.15 |
| CCCCCCCCCC(=O)OCC(C)(C)CCCCCN(CCO)CCCCCCCC(=O)OC(CCCCCCCCC)CCCCCCCCC [51b] | 7.60E+10 | 95.92 | 91.96 | 0.12 |
| CCCCCCCCCSC(=O)CCCCCCCN(CCO)CCCCCCC(C)(C)C(=O)OC(CCCCCCCC)CCCCCCCC [52a] | 2.58E+10 | 93.30 | 79.40 | 0.09 |
| CCCCCCCCCC(=O)OCC(C)(C)CCCCCN(CCCCO)CCCCCCCC(=O)OC(CCCCCCCCC)CCCCCCCCC [52b] | 1.01E+11 | 90.84 | 105.97 | 0.06 |
| CCCCCCCCCCCSC(=O)CCCCCN(CCO)CCCCCCC(C)(C)C(=O)OC(CCCCCCCC)CCCCCCCC [53a] | 9.04E+10 | 90.96 | 124.00 | 0.23 |
| CCCCCCCCCC(=O)OCC1(CCCCCN(CCO)CCCCCCCC(=O)OC(CCCCCCCCC)CCCCCCCCC)CC1 [53b] | 1.00E+11 | 91.92 | 125.03 | 0.42 |
| CCCCCCC#CCOC(=O)CCCCCCCN(CCO)CCCCCCC(C)(C)C(=O)OC(CCCCCCCC)CCCCCCCC [54a] | 1.32E+10 | 91.34 | 87.37 | 0.14 |
| CCCCCCCCCCC(=O)OCCC(C)(C)CCCCN(CCO)CCCCCCCC(=O)OC(CCCCCCCCC)CCCCCCCCC [54b] | 5.71E+10 | 96.69 | 81.37 | 0.17 |
| CCCCCC#CCCOC(=O)CCCCCCCN(CCO)CCCCCCC(C)(C)C(=O)OC(CCCCCCCC)CCCCCCCC [55a] | 1.96E+10 | 73.85 | 126.17 | 0.16 |
| CCCCCCCCCCC(=O)OCCC(C)(C)CCCCN(CCCCO)CCCCCCCC(=O)OC(CCCCCCCCC)CCCCCCCCC [55b] | 1.02E+11 | 94.65 | 90.37 | 0.11 |
| CCCCCCCCCC(=O)OCCC(C)(C)CCCCN(CCO)CCCCCCCC(=O)OCC(CCCCCCC)CCCCCCC [56b] | 8.35E+10 | 93.87 | 98.59 | 0.16 |
| CCCCCC/C=C\COC(=O)CCCCCCCN(CCO)CCCCCCC(C)(C)C(=O)OC(CCCCCCCC)CCCCCCCC [57a] | 3.42E+10 | 95.41 | 79.17 | 0.17 |
| CCCCCCCCCC(=O)OCCCC(C)(C)CCCN(CCO)CCCCCCCC(=O)OCC(CCCCCCC)CCCCCCC [57b] | 3.86E+10 | 94.15 | 98.23 | 0.18 |
| CCCCCCCCCNC(=O)CCCCCCCN(CCO)CCCCCCC(C)(C)C(=O)OC(CCCCCCCC)CCCCCCCC [58a] | 2.72E+10 | 68.54 | 187.50 | 0.18 |
| CCCCCCCCCC(=O)OCC1(CCCCCN(CCCO)CCCCCCCC(=O)OCC(CCCCCCC)CCCCCCC)CC1 [58b] | 6.17E+10 | 92.88 | 112.93 | 0.15 |
| CCCCCCCCCC(=O)OCCC(C)(C)CCCCN(CCCCO)CCCCCCCC(=O)OCC(CCCCCCC)CCCCCCC [59b] | 1.04E+11 | 80.27 | 127.23 | 0.12 |
| CCCCCCCCCCOC(=O)CCCCC(C)(C)CCN(CCCCCCCC(=O)OC(CCCCCCCCC)CCCCCCCCC)C(=O)SCCCCN(C)C [60a] | 1.75E+10 | 97.44 | 92.74 | 0.15 |
| CCCCCCCCCOC(=O)CCCCC(C)(C)CCN(CCCCCCCC(=O)OCC(CCCCCCC)CCCCCCC)C(=O)SCCCN(C)C [61a] | 1.32E+10 | 95.87 | 111.90 | 0.09 |
| CCCCCCCCCCCOC(=O)CCCCCN(CCO)CCCCC(C)(C)CCC(=O)OC(CCCCCCCC)CCCCCCCC [62a] | 1.20E+10 | 89.88 | 98.07 | 0.17 |
| CCCCCCCCCCC(=O)OCC(C)(C)CCCCCN(CCCCO)CCCCCCCC(=O)OCCCC(CCCCCC)CCCCCC [63b] | 2.72E+10 | 84.27 | 165.53 | 0.09 |
| CCCCCCCCCCCOC(=O)CCCCC(C)(C)CCN(CCO)CCCCCCCC(=O)OC(CCCCCCCCCC)CCCCCCCCCC [64a] | 9.82E+10 | 96.72 | 86.99 | 0.15 |
| CCCCCCCCCC(=O)OCCCC(C)(C)CCCN(CCCCO)CCCCCCCC(=O)OCC(CCCCCCC)CCCCCCC [64b] | 3.36E+10 | 89.27 | 143.67 | 0.09 |
| CCCCCCCCCCOC(=O)CCCCC(C)(C)CCN(CCO)CCCCCCCC(=O)OCC(CCCCCCCC)CCCCCCCC [65a] | 6.53E+10 | 95.93 | 95.88 | 0.16 |
